Results taken from patent US20080004695A1, “EVEROLIMUS/PIMECROLIMUS-ELUTING IMPLANTABLE MEDICAL DEVICES” (Abbott Cardiovascular Systems Inc., priority 2006, published 2008).

How the values were obtained:
[1] = 24 hour release of everolimus and pimecrolimus from dual-coated stent in porcine serum; format: physicochemical; conditions: EVAL-based dual-coated 12 mm Vision stent
Procedure: Using the method set forth in Example 1, a 12 mm Vision™ stent was similarly coated with everolimus and pimecrolimus. The 24 hour release of everolimus and pimecrolimus in porcine serum was then measured using methods known in the art. […] For pimecrolimus, 12.4 μg of an expected 60.6 μg of pimecrolimus was released over 24 hours resulting in 20.5% release.

[2] = in vivo release from PVDF-HFP-based coated stent implanted in a pig; conditions: PVDF-HFP matrix stent implanted in a pig, day 7
Procedure: A 12 mm Vision™ stent was cleaned in a bath of isopropyl alcohol and treated in a plasma cleaner to strip the top layer of molecules from the stent for better coat adhesion. The stent was then spray-coated with a primer solution consisting of 2% PBMA. The coated stent was dried in a convection oven at 80° C. for 0.5 hours.
The stent was then spray-coated with a drug reservoir solution consisting of PVDF-HFP, pimecrolimus and everolimus. A drug:polymer ratio of 1:3.5 of both pimecrolimus and everolimus to PVDF-HFP was used to coat the stent in order to obtain 64 μg of pimecrolimus and 64 μg of everolimus in the final coating. Spray coating parameters and the solvent were identical to those used for coating with the primer layer.
The stent was implanted in a pig and 1, 3 and 7 day release rates were obtained and compared with 24 hour release rates in porcine serum. […] By day 7, release of both drugs was 30%.

Compound | % release over 24 hours [1] | amount released over 24 hours [1] | in vivo percent release [2]
CC[C@@H]1/C=C(\C)C[C@H](C)C[C@H](OC)[C@H]2O[C@@](O)(C(=O)C(=O)N3CCCC[C@H]3C(=O)O[C@H](/C(C)=C/[C@@H]3CC[C@H](Cl)[C@H](OC)C3)[C@H](C)[C@@H](O)CC1=O)[C@H](C)C[C@@H]2OC [pimecrolimus] | 20.5% | 12.4 µg | 30%
CO[C@H]1C[C@@H]2CC[C@@H](C)[C@@](O)(O2)C(=O)C(=O)N2CCCC[C@H]2C(=O)O[C@H]([C@H](C)C[C@@H]2CC[C@@H](OCCO)[C@H](OC)C2)CC(=O)[C@H](C)/C=C(\C)[C@@H](O)[C@@H](OC)C(=O)[C@H](C)C[C@H](C)/C=C/C=C/C=C/1C [everolimus] | 19.7% | 12.2 µg | 30%
